# Measured values: patent publication US5089623A, “Certain imidate insecticides” (Imperial Chemical Industries Plc, priority 1990, dated 1992)
# Experiments:
# Format in all cases: in vivo
# [1] = tested on: Tobacco Budworm [Heliothis virescens (Fabricius)]; assay: Tobacco budworm contact test (TBW-C); conditions: second-instar larvae, 5 days, percent in solution
# Method in brief: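 Cotton cotyledons dipped 2–3 s in compound in 50:50 acetone–water, dried, then infested with 5 second-instar larvae and held 5 days at high humidity before scoring mortality.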
# [2] = tested on: Tobacco Budworm [Heliothis virescens (Fabricius)] eggs; assay: Tobacco budworm egg test (TBW-E); conditions: percent in solution
# [3] = tested on: Cabbage Looper [Trichoplusia ni (Hubner)]; assay: Cabbage looper test (CL); conditions: second-instar larvae, 3-5 days, percent in solution
# [4] = tested on: Beet Armyworm (Spodoptera exigua); assay: Beet armyworm test (BAW); conditions: second-instar larvae, five days, percent in solution
# Method in brief: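 Sugar beet leaves were dipped 2-3 s in compound diluted in 50-50 acetone-water, dried, then infested with five second-instar larvae in humid dishes. Mortality was scored after five days at concentrations from 0.1% downward. LC50 was taken from dosage-mortality curves as percent compound in solution.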
# [5] = tested on: Housefly [Musca domestica]; assay: Housefly insecticidal test (HF); conditions: per 25 female houseflies, 48 hours
# [6] = tested on: Rice water weevil [Lissorhoptrus oryzophilus (Kuschel)]; assay: Rice water weevil test (RWW); conditions: per weevil, topical, female adults, 48 hours
# Description: The compounds in Tables 1 and 2 above were tested for insecticidal activity using the following testing procedures. LC50 values, based on the results of these tests and calculated according to dosage-mortality curves, are expressed in Table 3.
# Rice water weevil [Lissorhoptrus oryzophilus (Kuschel)]
# Test compounds were diluted in acetone. Droplets (1 ul) of test solutions were applied to the ventral abdomens of ten female adult weevils. The treated weevils were placed in containers with wet cotton balls and rice foliage. The containers were covered and kept at a temperature of about 25° C. Mortality was recorded after 48 hours. […] The LC50 values are expressed below in Table 3 under the heading "RWW" in terms of μg of test compound per weevil.
# [7] = tested on: Aster Leafhopper [Macrosteles fascifrens (Stal)]; assay: Aster leafhopper test (LH); conditions: adults/nymphs, 48 hours, percent in solution
# [8] = tested on: Maize weevil [Sitophilus Zeamais (Motschulsky)]; assay: Maize weevil test (MW); conditions: adult weevils, treated corn seeds, 48 hours, percent in solution
# Method in brief: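 Adult weevils (10) were placed with four corn seeds that had been dipped 2-3 s in compound dissolved in 50:50 acetone:water, then dried, and held at about 25° C. Mortality was scored at 48 h. LC50 was taken from dosage-mortality curves and expressed as percent compound in solution, from a 0.01% top concentration.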
structure (smiles),measurement,setting,value
CC(C)C(=Nc1cc(F)cc(F)c1)OCc1cccc(Oc2ccccc2)c1 [Compound 55],LC50 TBW C,[1],0.004%
same,LC50 TBW E,[2],0.06%
same,LC50 CL,[3],0.0017%
same,LC50 BAW,[4],0.006%
same,LC50 HF,[5],> 100 µg
same,LC50 RWW,[6],> 2.5 µg
same,LC50 LH,[7],0.0005%
FC(F)(F)c1cccc(N=C(OCc2cccc(Oc3ccccc3)c2)C(Cl)Cl)c1 [Compound 66],LC50 TBW E,[2],0.06%
same,LC50 CL,[3],< 0.0025%
same,LC50 BAW,[4],0.0065%
same,LC50 HF,[5],9.7 µg
same,LC50 RWW,[6],> 2.5 µg
same,LC50 LH,[7],0.001%
CC(C)C(=Nc1ccc(F)c(Cl)c1)OCc1cccc(Oc2ccccc2)c1 [Compound 81],LC50 TBW C,[1],0.0009%
same,LC50 TBW E,[2],0.007%
same,LC50 CL,[3],0.0006%
same,LC50 BAW,[4],0.003%
same,LC50 HF,[5],4 µg
same,LC50 RWW,[6],> 0.5 µg
same,LC50 LH,[7],0.0003%
same,LC50 MW,[8],0.005%
CC(C)C(=Nc1ccc(F)c(Cl)c1)OCc1cccc(Oc2ccc(F)cc2)c1 [Compound 89],LC50 TBW C,[1],0.0005%
same,LC50 TBW E,[2],0.04%
same,LC50 CL,[3],0.00003%
same,LC50 BAW,[4],0.009%
same,LC50 HF,[5],5 µg
same,LC50 RWW,[6],> 2.5 µg
same,LC50 LH,[7],0.001%
same,LC50 MW,[8],0.005%
CC(C)C(=Nc1ccc2c(c1)OCO2)OCc1cccc(Oc2ccccc2)c1 [Compound 180],LC50 TBW C,[1],0.003%
same,LC50 TBW E,[2],0.03%
same,LC50 CL,[3],0.0004%
same,LC50 BAW,[4],0.005%
same,LC50 HF,[5],2 µg
same,LC50 RWW,[6],> 2.5 µg
same,LC50 LH,[7],0.0015%
same,LC50 MW,[8],0.008%
CC(C)C(=Nc1ccc2c(c1)OCO2)OCc1ccc(F)c(Oc2ccccc2)c1 [Compound 181],LC50 TBW C,[1],0.001%
same,LC50 TBW E,[2],0.01%
same,LC50 CL,[3],0.0005%
same,LC50 BAW,[4],0.001%
same,LC50 HF,[5],25 µg
same,LC50 RWW,[6],> 2.5 µg
same,LC50 MW,[8],0.005%
CC(C)C(=Nc1ccc(F)c(Cl)c1)OCc1ccc(F)c(Oc2ccc(F)cc2)c1 [Compound 216],LC50 TBW C,[1],0.00018%
same,LC50 TBW E,[2],0.005%
same,LC50 CL,[3],0.000007%
same,LC50 BAW,[4],0.0007%
same,LC50 HF,[5],2 µg
same,LC50 RWW,[6],0.067 µg
same,LC50 LH,[7],0.00025%
same,LC50 MW,[8],0.0017%
CC(C)C(=Nc1ccc(F)c(Cl)c1)OCc1cccc(Oc2ccc(Cl)cc2)c1 [Compound 239],LC50 TBW C,[1],0.0005%
same,LC50 TBW E,[2],0.025%
same,LC50 CL,[3],0.00015%
same,LC50 BAW,[4],0.005%
same,LC50 HF,[5],14 µg
same,LC50 RWW,[6],> 2.5 µg
same,LC50 LH,[7],0.002%
same,LC50 MW,[8],0.006%
CC(C)C(=Nc1ccc2c(c1)OC(F)(F)O2)OCc1cccc(Oc2ccc(F)cc2)c1 [Compound 244],LC50 TBW C,[1],0.00025%
same,LC50 TBW E,[2],> 0.1%
same,LC50 CL,[3],0.00004%
same,LC50 BAW,[4],0.002%
same,LC50 HF,[5],14 µg
same,LC50 RWW,[6],0.09 µg
same,LC50 MW,[8],0.0025%
CC(C)C(=Nc1ccc2c(c1)OC(F)(F)O2)OCc1cccc(Oc2ccccc2)c1 [Compound 245],LC50 TBW C,[1],0.0015%
same,LC50 TBW E,[2],0.016%
same,LC50 CL,[3],0.0035%
same,LC50 BAW,[4],0.001%
same,LC50 HF,[5],20 µg
same,LC50 RWW,[6],> 2.5 µg
same,LC50 MW,[8],0.006%
CC(C)C(=Nc1ccc(F)c(I)c1)OCc1ccc(F)c(Oc2ccc(F)cc2)c1 [Compound 281],LC50 TBW C,[1],0.00025%
same,LC50 TBW E,[2],0.006%
same,LC50 CL,[3],0.00002%
same,LC50 BAW,[4],0.0027%
same,LC50 HF,[5],5 µg
same,LC50 RWW,[6],> 2.5 µg
same,LC50 MW,[8],0.005%
CC(C)C(=Nc1ccc2c(c1)OC(F)(F)O2)OCc1ccc(F)c(Oc2ccccc2)c1 [Compound 285],LC50 TBW C,[1],0.00017%
same,LC50 TBW E,[2],0.005%
same,LC50 CL,[3],0.000075%
same,LC50 BAW,[4],0.0006%
same,LC50 HF,[5],36 µg
same,LC50 RWW,[6],0.13 µg
same,LC50 MW,[8],0.005%
CC(C)C(=Nc1ccc(F)c(F)c1)OCc1ccc(F)c(Oc2ccc(Cl)cc2)c1 [Compound 295],LC50 TBW C,[1],0.0005%
same,LC50 TBW E,[2],0.01%
same,LC50 CL,[3],0.00004%
same,LC50 HF,[5],7.8 µg
same,LC50 RWW,[6],> 2.5 µg
same,LC50 LH,[7],0.0001%
same,LC50 MW,[8],0.0053%
CC(C)C(=Nc1ccc(F)c(Br)c1)OCc1ccc(F)c(Oc2ccc(Cl)cc2)c1 [Compound 298],LC50 TBW C,[1],0.0008%
same,LC50 TBW E,[2],0.015%
same,LC50 CL,[3],0.0001%
same,LC50 HF,[5],13 µg
same,LC50 RWW,[6],> 2.5 µg
same,LC50 LH,[7],0.0001%
same,LC50 MW,[8],0.008%
CC(C)C(=Nc1ccc(F)c(C(F)(F)F)c1)OCc1ccc(F)c(Oc2ccccc2)c1 [Compound 300],LC50 TBW C,[1],0.001%
same,LC50 TBW E,[2],0.024%
same,LC50 CL,[3],0.0003%
same,LC50 HF,[5],14 µg
same,LC50 RWW,[6],0.075 µg
same,LC50 LH,[7],0.00002%
same,LC50 MW,[8],0.01%
CC(C)C(=Nc1ccc(C(F)(F)F)cc1)OCc1ccc(F)c(Oc2ccc(Cl)cc2)c1 [Compound 324],LC50 TBW C,[1],0.0004%
same,LC50 TBW E,[2],0.025%
same,LC50 CL,[3],0.00014%
same,LC50 BAW,[4],0.0024%
same,LC50 HF,[5],> 100 µg
same,LC50 RWW,[6],0.06 µg
CC(C)C(=Nc1ccc(F)cc1)OCc1ccc(F)c(Oc2ccc(Cl)cc2)c1 [Compound 325],LC50 TBW C,[1],0.0006%
same,LC50 TBW E,[2],0.037%
same,LC50 CL,[3],0.00012%
same,LC50 BAW,[4],0.0025%
same,LC50 HF,[5],5 µg
same,LC50 RWW,[6],> 2.5 µg
CC(C)C(=Nc1ccc(F)c(Cl)c1F)OCc1ccc(F)c(Oc2ccc(F)cc2)c1 [Compound 330],LC50 TBW C,[1],0.00035%
same,LC50 TBW E,[2],0.037%
same,LC50 CL,[3],0.00012%
same,LC50 HF,[5],5 µg
same,LC50 RWW,[6],0.06 µg
same,LC50 LH,[7],< 0.05%
same,LC50 MW,[8],0.001%
CC(C)C(=Nc1ccc(F)c(Cl)c1F)OCc1cccc(Oc2ccc(Cl)cc2)c1 [Compound 331],LC50 TBW C,[1],0.0004%
same,LC50 TBW E,[2],0.04%
same,LC50 CL,[3],0.0002%
same,LC50 BAW,[4],0.002%
same,LC50 HF,[5],20 µg
same,LC50 RWW,[6],> 2.5 µg
CC(C)C(=Nc1ccc(F)c(F)c1)OCc1ccc(F)c(Oc2ccccc2)c1 [Compound 336],LC50 TBW C,[1],0.0005%
same,LC50 TBW E,[2],0.02%
same,LC50 CL,[3],0.00017%
same,LC50 BAW,[4],0.001%
same,LC50 HF,[5],3.6 µg
same,LC50 RWW,[6],> 2.5 µg
same,LC50 MW,[8],0.0091%
CC(C)C(=Nc1ccc(C(F)(F)F)cc1)OCc1ccc(F)c(Oc2ccccc2)c1 [Compound 337],LC50 TBW C,[1],0.0005%
same,LC50 TBW E,[2],0.008%
same,LC50 CL,[3],0.0007%
same,LC50 BAW,[4],0.0005%
same,LC50 HF,[5],21 µg
same,LC50 RWW,[6],0.067 µg
same,LC50 MW,[8],0.0053%
CC(C)C(=Nc1ccc(F)c(Cl)c1F)OCc1ccc(F)c(Oc2ccccc2)c1 [Compound 451],LC50 TBW C,[1],0.00025%
same,LC50 TBW E,[2],> 0.1%
same,LC50 CL,[3],0.0001%
same,LC50 HF,[5],3.6 µg
same,LC50 RWW,[6],0.065 µg
same,LC50 LH,[7],0.0002%
same,LC50 MW,[8],0.0051%
CC(C)C(=Nc1ccc(F)c(Cl)c1)OCc1cccc(Oc2ccc(F)cc2)n1 [Compound 461],LC50 TBW E,[2],0.01%
same,LC50 CL,[3],0.00008%
same,LC50 BAW,[4],0.0035%
same,LC50 HF,[5],6 µg
same,LC50 RWW,[6],> 2.5 µg
same,LC50 MW,[8],0.0075%
